According to paper PMC10674851, “Discovery and Characterization of a Dual-Function Peptide Derived from Bitter Gourd Seed Protein Using Two Orthogonal Bioassay-Guided Fractionations Coupled with In Silico Analysis” (Pharmaceuticals, 2023):
No end group written: not given here.

Columns and labels:
[1] = target: T1, angiotensin-I-converting enzyme (ACE) from rabbit lungs (Oryctolagus cuniculus, UniProt P12822); test: ACE inhibitory (ACEI) activity assay, HHL substrate, hippuric acid by RP-HPLC; assay type: biochemical; settings: synthetic AW6, seven logarithmic concentrations, non-linear interpolation; mean ± SD, triplicate
T1 construct: angiotensin-I-converting enzyme (ACE) from rabbit lungs; purchased Sigma-Aldrich Co. (Saint Louis, MO, USA); host or cells: rabbit lung tissue
T1 sequence (P12822 34-1310): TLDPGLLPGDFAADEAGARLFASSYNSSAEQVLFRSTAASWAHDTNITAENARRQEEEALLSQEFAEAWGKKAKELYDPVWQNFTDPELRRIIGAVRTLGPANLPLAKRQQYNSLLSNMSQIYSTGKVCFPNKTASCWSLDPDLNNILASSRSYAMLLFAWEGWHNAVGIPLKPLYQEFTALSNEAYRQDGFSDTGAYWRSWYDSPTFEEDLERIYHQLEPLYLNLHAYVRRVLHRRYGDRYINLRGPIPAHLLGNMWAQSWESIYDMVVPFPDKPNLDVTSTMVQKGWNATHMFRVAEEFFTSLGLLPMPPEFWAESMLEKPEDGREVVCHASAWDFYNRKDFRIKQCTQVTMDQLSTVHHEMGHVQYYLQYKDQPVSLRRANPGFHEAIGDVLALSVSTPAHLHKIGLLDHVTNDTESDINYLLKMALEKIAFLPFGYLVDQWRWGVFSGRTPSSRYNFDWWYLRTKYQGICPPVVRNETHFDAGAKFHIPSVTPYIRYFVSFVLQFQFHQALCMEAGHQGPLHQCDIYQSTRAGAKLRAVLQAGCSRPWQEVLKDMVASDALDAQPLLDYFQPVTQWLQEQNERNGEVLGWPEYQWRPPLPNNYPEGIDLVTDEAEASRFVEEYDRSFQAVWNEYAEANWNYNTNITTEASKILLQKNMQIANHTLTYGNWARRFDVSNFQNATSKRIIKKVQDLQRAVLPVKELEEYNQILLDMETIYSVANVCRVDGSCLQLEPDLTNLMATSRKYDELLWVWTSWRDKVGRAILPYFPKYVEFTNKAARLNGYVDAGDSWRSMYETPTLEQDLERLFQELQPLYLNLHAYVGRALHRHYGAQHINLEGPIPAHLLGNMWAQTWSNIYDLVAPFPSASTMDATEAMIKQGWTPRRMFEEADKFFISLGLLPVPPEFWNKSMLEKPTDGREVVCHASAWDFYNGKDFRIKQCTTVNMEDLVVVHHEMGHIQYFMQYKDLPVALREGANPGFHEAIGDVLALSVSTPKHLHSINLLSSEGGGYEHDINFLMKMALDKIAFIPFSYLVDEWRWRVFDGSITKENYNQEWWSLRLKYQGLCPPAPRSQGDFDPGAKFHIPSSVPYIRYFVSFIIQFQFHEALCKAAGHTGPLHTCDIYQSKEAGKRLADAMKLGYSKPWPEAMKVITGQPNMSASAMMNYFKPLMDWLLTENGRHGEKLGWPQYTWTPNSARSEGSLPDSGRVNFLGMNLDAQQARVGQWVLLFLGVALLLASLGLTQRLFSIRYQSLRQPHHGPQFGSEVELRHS
Procedure: The ACEI activity was studied according to Cushman and Cheung [43], with a few modifications. First, 10 µL of the testing sample was premixed with 30 µL of hippuryl–histidine–leucine (HHL) and incubated at 37 °C for 5 min. Then, 20 µL of ACE (0.05 mU/µL) was added. Afterward, the reaction was held statically at 37 °C for 30 min and continued with shaking at 200 rpm for another 30 min. Then, 60 µL of 1 N hydrogen chloride was used to quench the reaction, and 10 µL of 0.25 µg/µL ferulic acid was mixed for an internal standard. […] The area under the curve of hippuric acid (HA) was observed using UV–Vis RP-HPLC at a wavelength of 228 nm, 1 mL/min steady flow rate, and 15 min of isocratic elution (26% ACN with 0.1% TFA in deionized water). The inhibitory activity of ACE was determined using the following equation:(2) ACE inhibitory activity %=1−HAinhibitor/HAno inhibitor×100%,
The HA(inhibitor) and HA(no inhibitor) were the areas under the curve of the hippuric acid acquired in the presence and absence of an inhibitor. The half-maximal inhibitory concentration of ACE inhibition (ACEI IC50) was calculated using a non-linear interpolation constructed with a minimum of six logarithmic concentrations of the testing sample.

[2] = target: T2, recombinant human dipeptidyl peptidase-IV (DPP4) (Homo sapiens, UniProt P27487); test: DPP4 inhibitory (DPP4I) activity assay, GP-pNA substrate, absorbance 405 nm; assay type: biochemical; settings: seven logarithmic concentrations, non-linear interpolation; mean ± SD, triplicate
T2 construct: purchased Sigma-Aldrich Co. (Saint Louis, MO, USA)
Procedure: The DPP4 inhibitory activity was determined as described by Nong, N. T. P. et al., with a few modifications. The testing samples, GP-pNA, linagliptin, and DPP4 were dissolved in 0.1 M Tris-HCl buffer, pH 8.0. Briefly, 25 µL of the testing sample was premixed with 25 µL of 1.6 mM GP-pNA and incubated at 37 °C for 10 min. Then, 50 µL of DPP4 (0.5 U/µL) was added. The reaction was continued for 60 min at 37 °C. The enzymatic reaction was quenched by adding 100 µL of 1 M sodium acetate, pH 4.0. The absorbance of pNA, as a product of the DPP4 and GP-pNA reactions, was monitored using a PowerWave XS (Biotek®, Winooski, VT, USA) 96-well microplate reader at a wavelength of 405nm. DPP4 inhibitory activity was calculated by the following equation:(3) DPP4 inhibitory activity %=1−pNAinhibitor/pNA no inhibitor×100%,
The pNA(inhibitor) and pNA(no inhibitor) were the absorbances of the pNA (λ = 405 nm) acquired in the presence and absence of an inhibitor, respectively. The half-maximal inhibitory concentration of DPP4 inhibition (DPP4I IC50) value was calculated using a non-linear interpolation for at least six logarithmic concentrations of the inhibitor.

[3] = in vivo, cited from earlier work
Excerpt: Simultaneously, ACE2, a homologue of ACE, counteracts the vasoconstrictor effects by converting Ang-II into Ang 1–7 (a vasodilator). ACE2 also transforms Ang-I into Ang 1–9, and ACE hydrolyzes Ang 1–9 into Ang 1–7, resulting in a vasodilation effect. However, Ang 1–7 has a short half-life of only half an hour in the human body, and i ...

T2 sequence (P27487 whole entry): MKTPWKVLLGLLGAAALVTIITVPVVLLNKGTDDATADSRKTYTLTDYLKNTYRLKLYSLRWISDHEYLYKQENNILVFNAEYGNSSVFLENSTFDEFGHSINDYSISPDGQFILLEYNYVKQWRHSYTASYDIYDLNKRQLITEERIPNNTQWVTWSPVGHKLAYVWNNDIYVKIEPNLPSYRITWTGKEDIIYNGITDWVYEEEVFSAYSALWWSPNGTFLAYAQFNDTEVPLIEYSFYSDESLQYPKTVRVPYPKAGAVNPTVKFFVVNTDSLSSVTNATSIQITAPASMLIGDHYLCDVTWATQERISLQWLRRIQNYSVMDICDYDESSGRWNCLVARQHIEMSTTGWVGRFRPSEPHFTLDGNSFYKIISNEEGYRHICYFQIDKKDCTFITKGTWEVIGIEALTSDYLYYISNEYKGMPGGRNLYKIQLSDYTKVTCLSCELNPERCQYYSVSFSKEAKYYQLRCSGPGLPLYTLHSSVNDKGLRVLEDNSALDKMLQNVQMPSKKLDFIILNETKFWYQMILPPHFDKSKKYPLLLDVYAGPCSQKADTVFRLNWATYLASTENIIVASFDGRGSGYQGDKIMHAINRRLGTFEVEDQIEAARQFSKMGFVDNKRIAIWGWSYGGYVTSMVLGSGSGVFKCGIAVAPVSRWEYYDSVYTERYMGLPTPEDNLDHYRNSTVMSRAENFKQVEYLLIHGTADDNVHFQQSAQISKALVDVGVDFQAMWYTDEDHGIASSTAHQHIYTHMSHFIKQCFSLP

IC50 [1] [µM]	IC50 [2] [µM]	Substance	half-life ([3]; human)	time of peak concentration in plasma [3]
9.6 ± 0.3	145 ± 4.4	APLVSW [AW6, APLVSW]	–	–
–	–	Ang 1–7: vasodilator formed from Ang-II by ACE2	half an hour	one hour
